# Experimental data reported in article PMC12801355, “Peptide Amphiphiles Hitchhike on Endogenous Biomolecules for Enhanced Cancer Imaging and Therapy” (Advanced Materials (Deerfield Beach, Fla.), 2025).
# Where a SMILES comes first, the peptide text is derived from it. The star is where a group is joined. Palmitoyl = CCCCCCCCCCCCCCCC(=O)*
# Columns and labels:
# human plasma proteins = target: T1, human plasma proteins (Homo sapiens, UniProt O14791); assay: Mass spectrometry of proteins pulled down with biotinylated SA‐E (SA‐Eb) from human plasma; assay type: binding
# T1 construct: incubated with 50% pooled human plasma at 37 °C for 2 h; from tissue; host or cells: pooled human plasma (50%)
# T1 sequence (O14791 28-398): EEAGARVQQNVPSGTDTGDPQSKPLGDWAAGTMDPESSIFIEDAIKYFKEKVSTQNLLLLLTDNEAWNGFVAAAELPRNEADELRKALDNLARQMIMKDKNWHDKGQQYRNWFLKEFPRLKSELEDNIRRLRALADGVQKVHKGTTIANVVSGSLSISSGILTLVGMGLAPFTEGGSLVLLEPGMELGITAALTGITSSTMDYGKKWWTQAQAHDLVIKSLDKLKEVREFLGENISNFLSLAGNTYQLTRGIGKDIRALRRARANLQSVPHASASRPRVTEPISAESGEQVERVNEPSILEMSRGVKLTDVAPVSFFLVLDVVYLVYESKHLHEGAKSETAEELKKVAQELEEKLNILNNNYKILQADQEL
# Experimental: Samples were prepared for mass spectrometry analysis via a pull‐down of a biotinylated version of the SA‐E probe (SA‐Eb, 100 µM) incubated with 50% pooled human plasma at 37 °C for 2 h. Before incubation with the SA‐Eb‐plasma mixture, magnetic streptavidin‐coated beads (Dynabeads MyOne Streptavidin T1, Invitrogen, 65601) were washed with PBS (10 mM, pH 7.4) then blocked with 1% casein equal to the total initial volume of beads for 15 min at room temperature. After blocking, beads were washed again with PBS. Beads were then combined with SA‐Eb‐plasma solution, 25 µL beads to 200 µL mixture. This mixture was then incubated at room temperature for 30 min. After incubation, the remaining solution was removed, and the beads were washed five times with PBS. Bound SA‐Eb was eluted from beads in 30 µL 0.5% Triton X‐100 solution. Magnetic beads were then removed, and the elution was collected for analysis. For plasma control, the incubation with SA‐Eb step was skipped, and 50% plasma in PBS was incubated with beads and washed and eluted using the same method as the SA‐Eb‐plasma solution. The elution solutions were then analyzed by the Proteomics Shared Resource facility at Oregon Health & Science University (See Supporting Information for details).
# Sample Preparation. Eluted plasma samples were dried down and stored at -80°C. Samples were thawed at room temperature for 10 min, and 75 µL of SDS protein extraction buffer (5% SDS, 50 mM […]; TEAB) was added to each sample. Samples were shaken in a Thermo mixer for 10 minutes at room temperature and centrifuged at 10,000 g for 5 min. Each sample was transferred from a 0.5 mL tube to a 1.5 mL LoBind centrifuge tube. Samples were reduced by adding 3.4 µL of 0.5 M dithiothreitol and incubated at 95 °C for 10 min. Samples were alkylated by the addition of 6.8 µL of 0.5 M iodoacetamide and were incubated at room temperature for 30 min in the dark. Samples were then acidified by the addition of 8.52 µL of 12% phosphoric acid, and 562 µL of SDS protein binding buffer (90% methanol, 100 mM TEAB, pH 7.51). Samples were transferred 165 µL at a time to S-trap micro columns (Protifi, Farmingdale, NY) and inserted into 1.5 mL of polypropylene tubes. Samples were centrifuged at 4,000 g for 3 min between each addition of the sample. S-trap columns were washed 6 times using 150 µL of 90% methanol containing 100 mM of TEAB followed by centrifugation at 4,000g for 3 min between each wash step. S-trap columns containing the bound sample proteins were transferred to 1.5 mL LoBind centrifuge tubes and 40 µL of 80 ng/µL sequencing grade modified trypsin (Pierce TM Trypsin Protease MS-Grade, XG348166) in 50 mM TEAB was added. S-trap columns were loosely capped, and digestion was performed at 37°C overnight in a humidified chamber.
# After completion of digestion, peptides were eluted by sequential addition of 40 µL of TEAB, 40 µL of 0.2% aqueous formic acid, and 40 µl of 50% acetonitrile, 0.2% formic acid, with centrifugation at 4,000 g for 4 min between each addition of elution buffer. The elution fractions were combined and then dried by vacuum centrifugation. Samples were reconstituted by adding 20 µL of 5% formic acid, shaking at 37 °C, and spinning at 15,000 g for 5 min. The supernatant of each sample was transferred to an auto-sample vial.
# Data analysis. Mass spectrometry data from all samples were processed using COMET/PAWS against Uniprot_Human_database. Comet (v. 2016.01, rev. 3)^8 was used to search MS2 Spectra against a January 2023 version of canonical FASTA protein database containing human uniprot sequences, and concatenated sequence-reversed entries to estimate error thresholds and 179 common contaminant sequences and their reversed forms. The database processing was performed using python scripts available at https://github.com/pwilmart/fasta_utilities.git and Comet results were processed using the PAW pipeline2 from https://github.com/pwilmart/PAW_pipeline.git.
# [1] = Blood circulation in mice; assay type: in vivo, mouse; conditions: wild type mice, 50 nmol IV
# Experimental: For blood circulation experiments, Balb/c mice were injected with 100 µL of ICG conjugated PAs or No‐SA, or free ICG (0.5 mM). Then, blood was drawn via the saphenous vein or retro‐orbitally at different time points (immediately after injection to 1 day). […] Blood from wild type mice was collected to prepare calibration curves for each probe. To each 18 µL aliquot of blood, 2 µL of probe stock solution (0.5 mM) was added and incubated at 37 °C for 1 h. The spiked samples were then serially diluted in blood between 50 and 0.1 µM. For fluorescence measurement, 2 µL of each diluted sample was further diluted into 98 µL of PBS, and ICG fluorescence was measured using a TECAN plate reader.
# 4T1 tumor = assay: Biodistribution in tumor‐bearing mice; assay type: in vivo, mouse; conditions: 4T1, 2 days after 50 nmol IV, tissue homogenates, plate reader, mean ± SEM
# Experimental: For biodistribution studies in 4T1 and MC38 tumor models in wild type, ApoA1 ‐/‐, or LDL‐R ‐/‐ mice, 100 µL of ICG conjugated PAs or free ICG (0.5 mM) were intravenously injected. 2 days after injection, the mice were euthanized, and tumors and organs were excised and analyzed in the IVIS (PerkinElmer) for ICG.
# To determine the percentage of the injected dose of SA‐E in tissues, 4T1 tumor, spleen, kidney, lung, and colon tissues were harvested from 5 mice 2 days after ICG conjugated SA‐E (IV, 100 µL, 0.5 mM). Organ weights were measured for normalization. Tissues were homogenized in gentleMACS M Tube containing 1 mL of PBS and equipped with a 600 µm mesh strainer using a gentleMACS dissociator as described above. The resulting tissue homogenates were transferred into a 96‐well plate for fluorescence measurement using a microplate reader (TECAN Spark 20 M). Additionally, organ tissues from healthy mice without probe injection were harvested and homogenized to prepare calibration curves. ICG conjugated SA‐E was spiked into tissue samples at different concentrations, and fluorescence intensities were measured using a microplate reader (TECAN Spark 20 M). For biodistribution studies with 10 mol% ICG containing micelles, ICG conjugated PAs were mixed with maleimide blocked PAs to achieve a final concentration of 0.25 mM ICG conjugated PAs and 2.5 mM total peptides. […]
smiles,measurement,setting,value
CCCCCCCCCCCCCCCC(=O)NCC(=O)NCC(=O)NCC(=O)N[C@@H](Cc1c[nH]cn1)C(=O)N[C@@H](C)C(=O)N[C@@H](C)C(=O)N[C@@H](CC(N)=O)C(=O)NCC(=O)N[C@@H](CCC(=O)O)C(=O)N[C@@H](CCC(=O)O)C(=O)N[C@@H](CS)C(=O)N[C@@H](CCC(=O)O)C(=O)O [SA‐E] (Palmitoyl-GGGHAANGEECE-OH),"Percentage, Apolipoprotein L1",human plasma proteins; replicate 1,0.2%
same,"Total Counts, Apolipoprotein L1",human plasma proteins; replicate 1,7
same,"Percentage, Apolipoprotein L1",human plasma proteins; replicate 2,0.2%
same,"Total Counts, Apolipoprotein L1",human plasma proteins; replicate 2,7
same,AUC of blood circulation plot relative to SA‐K,[1],2.1 fold
same,concentration in the tumor,4T1 tumor; 5 mice,1.9% ± 0.4 %ID / g tissue
same,concentration in liver,4T1 tumor,0.8% ± 0.1 %ID / g tissue
